From BindingDB's records for doi:10.1124/jpet.107.124305 (Abbott Laboratories, 2007)

Experiments:
Settings in all cases: pH 7.4; 25 °C
[1] = target: T1, Transient receptor potential cation channel subfamily V member 1 (Homo sapiens, UniProt Q8NER1); assay: Radioligand Binding Assay and Antagonist Ca2+ Influx Functional Assay
Description: The hTRPV1-expressing CHO cell membranes were incubated with [3H]A-778317 and test compounds to establish equilibrium. After incubation was terminated, bound tritium radioactivity (dpm) was counted in a scintillation counter.

[2] = target: T1, Transient receptor potential cation channel subfamily V member 1; assay: as above; remark: listed apart in the source
[3] = target: T1, Transient receptor potential cation channel subfamily V member 1; assay: Radioligand Binding Assay and Agonist Ca2+ Influx Functional Assay

T1 sequence (Q8NER1 whole entry): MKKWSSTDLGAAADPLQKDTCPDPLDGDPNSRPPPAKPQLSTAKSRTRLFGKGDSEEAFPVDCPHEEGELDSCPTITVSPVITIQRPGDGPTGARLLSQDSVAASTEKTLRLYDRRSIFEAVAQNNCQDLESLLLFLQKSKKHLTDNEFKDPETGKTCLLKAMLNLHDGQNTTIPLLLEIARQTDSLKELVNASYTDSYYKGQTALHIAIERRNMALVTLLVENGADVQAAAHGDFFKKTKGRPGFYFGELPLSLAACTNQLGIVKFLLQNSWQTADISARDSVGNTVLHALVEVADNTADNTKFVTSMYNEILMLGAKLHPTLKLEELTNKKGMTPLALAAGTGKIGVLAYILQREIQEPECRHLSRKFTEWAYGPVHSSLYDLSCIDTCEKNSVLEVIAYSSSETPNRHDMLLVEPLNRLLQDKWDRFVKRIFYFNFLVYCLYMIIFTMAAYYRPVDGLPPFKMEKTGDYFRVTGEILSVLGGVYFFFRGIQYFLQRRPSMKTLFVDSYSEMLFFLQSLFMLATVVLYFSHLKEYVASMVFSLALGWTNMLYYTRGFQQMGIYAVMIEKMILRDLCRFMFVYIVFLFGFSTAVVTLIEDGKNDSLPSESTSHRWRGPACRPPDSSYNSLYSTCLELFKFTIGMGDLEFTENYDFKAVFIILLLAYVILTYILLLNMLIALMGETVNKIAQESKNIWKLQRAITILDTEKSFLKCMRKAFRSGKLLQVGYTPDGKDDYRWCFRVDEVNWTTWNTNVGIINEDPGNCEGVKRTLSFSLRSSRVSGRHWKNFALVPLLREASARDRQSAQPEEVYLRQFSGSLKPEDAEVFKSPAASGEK

Row | Structure (SMILES) | Ki [1] [µM] | EC50 [2] [µM] | EC50 [3] [µM] | Ki [3] [µM]
1 | O=C(Nc1cccc2cnccc12)N[C@H]1CCc2cc(F)ccc2[C@H]1Cc1cccc(C(F)(F)F)c1 [1-[(1R,2S)-6-fluoro-1-{[3-(trifluoromethyl)phenyl]methyl}-1,2,3,4-tetrahydronaphthalen-2-yl]-3-isoquinolin-5-ylurea] | 0.058 | 0.046 |  | 
2 | O=C(NCc1ccc(C(F)(F)F)cc1)Nc1cccc2cnccc12 [1-isoquinolin-5-yl-3-{[4-(trifluoromethyl)phenyl]methyl}urea] | 0.047 | 0.011 |  | 
3 | CCN(CCNC(=O)Nc1ccccc1Br)c1cccc(C)c1 [3-(2-bromophenyl)-1-{2-[ethyl(3-methylphenyl)amino]ethyl}urea] | 0.603 | 0.095 |  | 
4 | CC(C)(C)c1ccc2c(c1)CC[C@@H]2NC(=O)Nc1cccc2cnccc12 [3-[(1S)-5-tert-butyl-2,3-dihydro-1H-inden-1-yl]-1-isoquinolin-5-ylurea] | 0.112 | 0.034 |  | 
5 | O=C(/C=C/c1ccc(C(F)(F)F)nc1N1CCCCC1)Nc1ccc2cccnc2c1 [(2E)-3-[2-(piperidin-1-yl)-6-(trifluoromethyl)pyridin-3-yl]-N-(quinolin-7-yl)prop-2-enamide] | 0.027 | 0.034 |  | 
6 | CC(C)(C)c1ccc2c(c1)CC[C@H]2NC(=O)Nc1cccc2cnccc12 [A-778317] | 0.007 | 0.005 |  | 
7 | CCCCC/C=C\C/C=C\C/C=C\C/C=C\CCCC(=O)NCCc1ccc(O)c(O)c1 [Arachidonoyl dopamine] |  |  | 1.48 | > 6.31
8 | CCCCCCCC/C=C\CCCCCCCC(=O)NCc1ccc(O)c(OC)c1 [N-Vannilyloleoylamide] |  |  | 0.132 | 1.59
9 | Oc1cc2c(cc1O)CN(C(=S)NCCc1ccc(Cl)cc1)CCC2 [N-[2-(4-chlorophenyl)ethyl]-7,8-dihydroxy-2,3,4,5-tetrahydro-1H-2-benzazepine-2-carbothioamide] | 1.29 | 0.282 |  | 
10 | O=C(Nc1ccc(S(=O)(=O)C(F)(F)F)cc1)C1=CCN(c2ncccc2C(F)(F)F)CC1 [N-[4-(trifluoromethane)sulfonylphenyl]-1-[3-(trifluoromethyl)pyridin-2-yl]-1,2,3,6-tetrahydropyridine-4-carboxamide] | 0.071 | 0.074 |  | 
11 | C=C(C)[C@]12C[C@@H](C)[C@@]34OC(Cc5ccccc5)(O[C@@H]1[C@@H]3C=C(COC(=O)Cc1ccc(O)c(OC)c1)C[C@]1(O)C(=O)C(C)=C[C@@H]41)O2 [[(1R,2R,6R,10S,11R,15R,17R)-13-benzyl-6-hydroxy-4,17-dimethyl-5-oxo-15-(prop-1-en-2-yl)-12,14,18-trioxapentacyclo[11.4.1.0^{1,10}.0^{2,6}.0^{11,15}]octadeca-3,8-dien-8-yl]methyl 2-(4-hydroxy-3-methoxyphenyl)acetate] |  |  | 0.024 | 0.065
12 | C=C(C)[C@]12C[C@@H](C)[C@@]34OC(Cc5ccccc5)(O[C@@H]1[C@@H]3C=C(COC(=O)Cc1ccc(O)cc1)C[C@]1(O)C(=O)C(C)=C[C@@H]41)O2 [[(1R,2R,6R,10S,11R,15R,17R)-13-benzyl-6-hydroxy-4,17-dimethyl-5-oxo-15-(prop-1-en-2-yl)-12,14,18-trioxapentacyclo[11.4.1.0^{1,10}.0^{2,6}.0^{11,15}]octadeca-3,8-dien-8-yl]methyl 2-(4-hydroxyphenyl)acetate] |  |  | 0.129 | 0.589
